Data on ten compounds can be found in patent US20220298146A1, “HETEROCYCLIC DERIVATIVE AND USE THEREOF” (Transthera Sciences (Nanjing), Inc., priority 2019, published 2022).

For one assay, the target named is T1, H1299 cell pMer (Homo sapiens, UniProt Q12866).
T1 construct: endogenous in cells; host or cells: H1299
T1 sequence (Q12866 21-999): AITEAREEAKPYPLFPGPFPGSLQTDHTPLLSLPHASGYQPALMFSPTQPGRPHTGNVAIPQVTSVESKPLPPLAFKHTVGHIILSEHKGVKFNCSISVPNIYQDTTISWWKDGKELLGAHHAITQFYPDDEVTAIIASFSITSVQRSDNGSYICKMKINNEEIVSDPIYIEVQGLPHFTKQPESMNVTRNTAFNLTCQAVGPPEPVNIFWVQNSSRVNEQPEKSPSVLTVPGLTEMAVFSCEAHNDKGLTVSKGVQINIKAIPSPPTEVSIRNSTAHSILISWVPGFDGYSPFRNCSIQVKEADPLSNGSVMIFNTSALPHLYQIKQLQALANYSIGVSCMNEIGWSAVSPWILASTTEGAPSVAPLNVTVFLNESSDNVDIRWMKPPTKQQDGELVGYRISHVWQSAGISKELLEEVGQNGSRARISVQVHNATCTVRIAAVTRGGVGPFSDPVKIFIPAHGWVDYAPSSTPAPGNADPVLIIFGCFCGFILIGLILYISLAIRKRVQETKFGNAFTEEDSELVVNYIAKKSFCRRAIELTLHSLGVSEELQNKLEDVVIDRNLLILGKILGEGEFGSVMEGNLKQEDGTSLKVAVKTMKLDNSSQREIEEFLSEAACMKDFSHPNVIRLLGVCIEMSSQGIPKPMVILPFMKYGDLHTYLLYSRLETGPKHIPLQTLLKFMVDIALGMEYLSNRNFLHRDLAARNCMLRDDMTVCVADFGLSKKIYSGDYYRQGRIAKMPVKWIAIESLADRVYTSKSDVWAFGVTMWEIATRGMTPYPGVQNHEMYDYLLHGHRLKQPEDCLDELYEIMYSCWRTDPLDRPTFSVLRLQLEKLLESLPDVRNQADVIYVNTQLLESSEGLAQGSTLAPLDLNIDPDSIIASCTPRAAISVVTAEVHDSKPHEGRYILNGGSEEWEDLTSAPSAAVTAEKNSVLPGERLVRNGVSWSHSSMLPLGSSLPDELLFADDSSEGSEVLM
Nature of the assay: Inhibitory activity on cell pMer (H1299 cells, Human MerMab stimulation, Western Blot). It is filed as cell-based. The following applies: Human MerMab 200 ng/mL, tested at 0.37, 1.1, 3.3 and 10 nM. How it is done: H1299 is a non-small cell lung cancer cell.
Test samples: the compounds of the present invention, having structures shown above.
Test instruments: protein electrophoresis apparatus (made by Bio Rad), membrane transfer apparatus (made by Bio Rad), exposure apparatus (made by Tanon), and CO2 cell incubator (made by Thermo).
H1299 cells were inoculated into a 6-well plate (containing 10% FBS 1640 medium, 5×10^5 cells per well) and adherently cultivated at 37° C. and 5% CO2 for 18 h. The cells were starved overnight, and compounds with different concentrations were added. The compounds had final concentrations of 0.37 nM, 1.1 nM, 3.3 nM and 10 nM, with DMSO having a final concentration of 1‰. There was a medium containing 10‰ DMSO in the negative control well. The cells were incubated at 37° C. and 5% CO2 for 60 min, and then Human MerMab (R&D, final concentration: 200 ng/mL) was added to each well. The cells were further incubated for 60 min, and then the total protein of the cells was extracted for Western Blot experiment. Gray analysis was performed on the results with Image J software, and IC50 values were calculated with GraphPad 5.0 software. The inhibitory activities of the compounds on cell pMer were detected.

For a further assay, the target named is T2, Mer (h) (Homo sapiens, UniProt Q12866).
T2 construct: purchased
T2 sequence (Q12866 21-999): T1 sequence (Q12866 21-999)
Kind of assay: Enzymatic activity assay, Mer (h) kinase, [γ-33P]-ATP. The assay is classed as biochemical. To be noted: 10 μM [γ-33P]-ATP, 40 min, room temperature; read-out: Inhibitory Activity on Mer (h), IC50. The procedure: Test samples: the compounds of the present invention, having structures and preparation methods shown above.
(1) Preparation of Compound Stock Solutions
Compounds were each dissolved in 100% DMSO to prepare stock solutions with a maximum concentration of 500 μM.
(2) Preparation of Compound Working Solutions
The compound stock solutions were diluted to final concentrations of 500 μM, 150 μM, 50 μM, 15 μM, 5 μM, 1.5 μM, 0.5 μM, 0.15 μM and 0.05 μM to prepare compound working solutions (50×).
(3) Preparation of different enzymatic reaction solutions
Mer (h) enzyme was dissolved in a mixture of 8 mM MOPS (pH 7.0), 0.2 mM EDTA, 30 mM NaCl and 250 μM GGMEDIYFEFMGGKKK to prepare an enzyme solution with a final concentration of 3.1 nM. An Mg/ATP mixture of 10 mM magnesium acetate and 10 μM [γ-^33P]-ATP was used to activate the enzymatic reaction.
The compound working solutions were added to a 384-well plate, with final concentrations of 10000 nM, 3000 nM, 1000 nM, 300 nM, 100 nM, 30 nM, 10 nM, 3 nM and 1 nM, respectively, and then different enzymatic reaction solutions prepared according to the above conditions were added. The reaction solutions were incubated at room temperature for 40 min, and then 0.5% phosphoric acid solutions were added to terminate the reaction. 10 μL of the reaction solution was added dropwise to P30 filter paper which was washed 4 times with a 0.425% phosphoric acid solution and once with methanol and then placed in a scintillation counter for detection. Gray analysis was performed on the results with Image J software, and IC50 values were calculated with GraphPad 5.0 software.

Turning to `Cn1cc(-c2ccc(F)cc2)c(=O)c(C(=O)Nc2ccc(Oc3ccnc(N)c3Cl)cn2)n1` [Compound 33, N-(5-((2-amino-3-chloropyridin-4-yl)oxy)pyridin-2-yl)-5-(4-fluorophenyl)-1-methyl-4-oxo-1,4-dihydropyridazine-3-carboxamide], the half-maximal inhibitory concentration (IC50) (as a rule, the concentration that gives 50% inhibition) at H1299 cell pMer was found to be 3.3 nM; on Mer (h) it was 3 nM.

Take `CC(C)n1cc(-c2ccc(F)cc2)c(=O)c(C(=O)Nc2ncc(Oc3ccnc(N)c3Cl)cn2)n1` [Compound 12, N-(5-((2-amino-3-chloropyridin-4-yl)oxy)pyrimidin-2-yl)-5-(4-fluorophenyl)-1-isopropyl-4-oxo-1,4-dihydropyridazine-3-carboxamide]: the values for the concentration for half-maximal inhibition (IC50) against H1299 cell pMer and at Mer (h) were 1.1 nM and 8 nM, respectively.

As to `Nc1nccc(Oc2cnc(NC(=O)c3nn(C4CC4)cc(-c4ccc(F)cc4)c3=O)nc2)c1Cl` [Compound 18, N-(5-((2-amino-3-chloropyridin-4-yl)oxy)pyrimidin-2-yl)-5-(4-fluorophenyl)-1-cyclopropyl-4-oxo-1,4-dihydropyridazine-3-carboxamide], the concentration for half-maximal inhibition (IC50) against H1299 cell pMer stood at 1.1 nM; at Mer (h), 6 nM.

Regarding `Nc1nccc(Oc2ccc(NC(=O)c3nn(C4CC4)cc(-c4ccc(F)cc4)c3=O)nc2)c1Cl` [Compound 17, N-(5-((2-amino-3-chloropyridin-4-yl)oxy)pyridin-2-yl)-1-cyclopropyl-5-(4-fluorophenyl)-4-oxo-1,4-dihydropyridazine-3-carboxamide], the half-inhibitory concentration (IC50) against H1299 cell pMer is less than 1.1 nM; on Mer (h), 2 nM.

For the compound `C=CCn1cc(-c2ccc(F)cc2)c(=O)c(C(=O)Nc2ncc(Oc3ccnc(N)c3Cl)cn2)n1` [Compound 37], the results for the IC50 at H1299 cell pMer and on Mer (h) were 3.3 nM and 7 nM, respectively.

Take `Nc1nccc(Oc2ccc(NC(=O)c3nn(C4CC4)cc(-c4ccc(F)cc4)c3=O)cn2)c1Cl` [Compound 19, N-(6-((2-amino-3-chloropyridin-4-yl)oxy)pyridin-3-yl)-1-cyclopropyl-5-(4-fluorophenyl)-4-oxo-1,4-dihydropyridazine-3-carboxamide]: the IC50 was 10 nM against H1299 cell pMer and 18 nM on Mer (h).

Turning to `CC(C)n1cc(-c2ccc(F)cc2)c(=O)c(C(=O)Nc2ccc(Oc3ccnc(N)c3Cl)nc2)n1` [Compound 13, N-(6-((2-amino-3-chloropyridin-4-yl)oxy)pyridin-3-yl)-5-(4-fluorophenyl)-1-isopropyl-4-oxo-1,4-dihydropyridazine-3-carboxamide], the figures for the IC50 on H1299 cell pMer and on Mer (h) were 3.3 to 10 nM and 8 nM, respectively.

With `C=CCn1cc(-c2ccc(F)cc2)c(=O)c(C(=O)Nc2ccc(Oc3ccnc(N)c3Cl)nc2)n1` [Compound 39, 1-allyl-N-(6-((2-amino-3-chloropyridin-4-yl)oxy)pyridin-3-yl)-5-(4-fluorophenyl)-4-oxo-1,4-dihydropyridazine-3-carboxamide], the results for the concentration for half-maximal inhibition (IC50) against H1299 cell pMer and on Mer (h) were 3.3 to 10 nM and 3 nM, respectively.

Turning to `C=CCn1cc(-c2ccc(F)cc2)c(=O)c(C(=O)Nc2ccc(Oc3ccnc(N)c3Cl)cn2)n1` [Compound 35, 1-allyl-N-(5-((2-amino-3-chloropyridin-4-yl)oxy)pyridin-2-yl)-5-(4-fluorophenyl)-4-oxo-1,4-dihydropyridazine-3-carboxamide], the IC50 against H1299 cell pMer was 0.37 nM; at Mer (h) it was 4 nM.

As to `CC(C)n1cc(-c2ccc(F)cc2)c(=O)c(C(=O)Nc2ccc(Oc3ccnc(N)c3Cl)cn2)n1` [Compound 11, N-(5-((2-amino-3-chloropyridin-4-yl)oxy)pyridin-2-yl)-5-(4-fluorophenyl)-1-isopropyl-4-oxo-1,4-dihydropyridazine-3-carboxamide], the IC50 at H1299 cell pMer is 1.1 nM; at Mer (h) it was 9 nM.
